Reference: patent US10435371B2, “Multifunctional aminoquinoline therapeutic agent” (LOHOCLA RESEARCH CORPORATION, priority 2014, dated 2019)

Experiments:
D1 (Dopamine Rs) = D1 (Dopamine Rs) (Homo sapiens, UniProt P21728); experiment: PDSP radioligand binding
[1] = target: β2 (Adrenergic Rs (beta adrenergic)) (Homo sapiens, UniProt P07550); experiment: PDSP radioligand binding
CB1 Receptor = target: T1, CB1 Receptor (Homo sapiens, UniProt P21554); experiment: PDSP radioligand displacement, [^3H]CP55940; design: species or system rat; details: read-out: Binding constant Ki, CB1 Receptor
T1 construct: expressed in transfected cells
T1 sequence (P21554 whole entry): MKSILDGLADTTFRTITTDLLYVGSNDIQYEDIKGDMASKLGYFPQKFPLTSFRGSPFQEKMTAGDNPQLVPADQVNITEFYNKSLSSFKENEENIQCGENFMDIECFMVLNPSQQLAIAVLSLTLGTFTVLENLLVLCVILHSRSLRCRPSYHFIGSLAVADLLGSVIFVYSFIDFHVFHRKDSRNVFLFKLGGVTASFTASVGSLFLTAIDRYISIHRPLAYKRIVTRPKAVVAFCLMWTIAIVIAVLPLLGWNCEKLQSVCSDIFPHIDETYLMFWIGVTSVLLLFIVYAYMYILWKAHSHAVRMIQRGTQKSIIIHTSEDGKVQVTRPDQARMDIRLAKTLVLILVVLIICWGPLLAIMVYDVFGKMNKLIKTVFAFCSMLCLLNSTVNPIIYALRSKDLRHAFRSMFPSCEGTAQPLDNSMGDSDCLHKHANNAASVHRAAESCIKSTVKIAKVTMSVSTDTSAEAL

[2] = target: CaV1.2 (Voltage sensitive Ca** channel (L-type)) (Homo sapiens, UniProt Q13936); experiment: PDSP radioligand binding; details: Table 3, the 6th table r22c0; read-out: Ki, CaV1.2 (lack of affinity)
Chain of CaV1.2 (Voltage sensitive Ca** channel (L-type)) (Q13936 whole entry): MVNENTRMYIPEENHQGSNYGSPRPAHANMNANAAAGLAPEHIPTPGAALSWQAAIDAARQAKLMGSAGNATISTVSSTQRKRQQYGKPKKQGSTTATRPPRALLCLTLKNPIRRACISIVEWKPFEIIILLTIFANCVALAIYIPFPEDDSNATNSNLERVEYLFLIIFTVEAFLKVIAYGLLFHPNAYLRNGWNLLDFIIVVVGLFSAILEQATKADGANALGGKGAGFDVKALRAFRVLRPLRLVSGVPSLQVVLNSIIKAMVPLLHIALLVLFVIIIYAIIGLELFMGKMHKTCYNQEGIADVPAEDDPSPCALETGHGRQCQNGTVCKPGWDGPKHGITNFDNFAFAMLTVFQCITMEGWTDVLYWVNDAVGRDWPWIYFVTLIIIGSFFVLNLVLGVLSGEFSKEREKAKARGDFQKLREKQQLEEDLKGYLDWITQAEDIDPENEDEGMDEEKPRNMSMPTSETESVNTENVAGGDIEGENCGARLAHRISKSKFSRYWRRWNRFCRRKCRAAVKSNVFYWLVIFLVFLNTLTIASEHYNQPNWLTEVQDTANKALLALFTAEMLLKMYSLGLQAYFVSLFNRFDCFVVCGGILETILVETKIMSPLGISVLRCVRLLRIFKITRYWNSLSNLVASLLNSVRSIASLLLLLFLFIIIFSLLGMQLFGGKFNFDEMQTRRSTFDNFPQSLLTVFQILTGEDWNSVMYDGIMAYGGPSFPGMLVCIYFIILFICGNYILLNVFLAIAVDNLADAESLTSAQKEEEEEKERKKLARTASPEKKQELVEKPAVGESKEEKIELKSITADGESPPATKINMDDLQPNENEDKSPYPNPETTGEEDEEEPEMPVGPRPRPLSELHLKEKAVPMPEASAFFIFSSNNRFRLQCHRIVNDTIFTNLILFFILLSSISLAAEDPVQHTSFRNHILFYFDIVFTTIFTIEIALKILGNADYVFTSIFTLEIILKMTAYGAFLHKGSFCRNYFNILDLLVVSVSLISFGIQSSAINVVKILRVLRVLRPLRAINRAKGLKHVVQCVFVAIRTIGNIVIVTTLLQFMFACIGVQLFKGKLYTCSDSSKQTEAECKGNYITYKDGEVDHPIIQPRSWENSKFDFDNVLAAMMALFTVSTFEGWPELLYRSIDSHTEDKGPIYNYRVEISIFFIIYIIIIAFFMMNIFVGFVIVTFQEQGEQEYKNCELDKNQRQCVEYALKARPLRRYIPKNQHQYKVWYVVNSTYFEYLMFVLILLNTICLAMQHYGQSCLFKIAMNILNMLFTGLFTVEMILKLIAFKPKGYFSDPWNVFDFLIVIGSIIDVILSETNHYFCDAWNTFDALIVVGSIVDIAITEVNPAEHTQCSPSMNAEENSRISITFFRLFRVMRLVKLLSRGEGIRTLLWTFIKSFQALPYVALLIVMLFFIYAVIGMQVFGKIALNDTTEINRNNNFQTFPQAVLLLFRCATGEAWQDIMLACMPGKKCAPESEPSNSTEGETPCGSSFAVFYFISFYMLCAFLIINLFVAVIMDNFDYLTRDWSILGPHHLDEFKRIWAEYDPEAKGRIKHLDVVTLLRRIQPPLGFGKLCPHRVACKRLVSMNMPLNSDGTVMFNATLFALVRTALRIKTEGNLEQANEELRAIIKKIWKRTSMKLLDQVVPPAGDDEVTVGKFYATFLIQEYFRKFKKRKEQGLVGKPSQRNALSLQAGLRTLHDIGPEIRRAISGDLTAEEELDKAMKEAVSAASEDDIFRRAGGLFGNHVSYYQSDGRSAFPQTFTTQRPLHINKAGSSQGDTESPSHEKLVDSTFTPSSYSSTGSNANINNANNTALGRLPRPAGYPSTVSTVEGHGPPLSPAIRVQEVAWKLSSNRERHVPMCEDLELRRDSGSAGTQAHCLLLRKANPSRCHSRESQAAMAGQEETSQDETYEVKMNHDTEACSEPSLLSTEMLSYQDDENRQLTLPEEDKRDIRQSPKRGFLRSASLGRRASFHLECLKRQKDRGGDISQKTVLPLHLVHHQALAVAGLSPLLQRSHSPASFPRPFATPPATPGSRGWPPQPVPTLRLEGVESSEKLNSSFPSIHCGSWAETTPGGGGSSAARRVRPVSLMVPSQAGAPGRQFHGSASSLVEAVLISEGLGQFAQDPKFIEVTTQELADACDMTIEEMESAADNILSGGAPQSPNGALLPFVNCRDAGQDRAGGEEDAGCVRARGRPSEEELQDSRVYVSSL

[3] = target: β1 (Adrenergic Rs (beta adrenergic)) (Homo sapiens, UniProt P08588); experiment: PDSP radioligand binding
ethanol dependent rats = experiment: Operant responding for alcohol in ethanol vapor-exposed dependent rats; type: in vivo, rat; details: ethanol vapor-exposed rats; FIG. 18
Text: This example illustrates that ethanol dependent rats are motivated to work for ethanol reward during a period of forced abstinence and that DCUK-OEt reduces responding for the alcohol reward.
The methods used in this study are extensively described in (Vendruscolo et al., 2012). The rats were first trained to self-administer ethanol in an operant chamber. The rats were given free-choice access to alcohol (10% w/v) and water for 1 day in their home cages to habituate them to the taste of alcohol. The rats were then subjected to an overnight session in the operant chambers with access to one lever that delivered water (FR1). Food was available ad libitum during this training. After 1 day off, the rats were subjected to a 2 hour session (FR1) for 1 day and a 1 hour session (FR1) the next day, with one lever delivering alcohol. All of the subsequent sessions lasted 30 minutes, and two levers were available (left lever: water; right lever: alcohol). Once trained, the rats were made dependent by chronic, intermittent exposure to alcohol vapors (Gilpin et al., 2008). They underwent cycles of 14 hours of ethanol exposure (blood alcohol levels during vapor exposure ranged between 150 and 250 mg %) and 10 hours in the absence of ethanol vapor, during which behavioral testing for acute withdrawal occurred (i.e., 6-8 hours after vapor was turned off, when brain and blood alcohol levels were negligible). Nondependent rats were those not exposed to alcohol vapor. Pharmacological testing occurred after at least 2 months of vapor exposure, when full dependence was observed. DCUKA-OEt was administered i.p. at the doses specified in FIG. 18, sixty minutes prior to placing the animal in the operant chamber. The vehicle for DCUK-OEt was injected in certain animals as a control.

[4] = tested on: rats treated with Complete Freund's Adjuvant; experiment: Prevention of CFA-induced neuropathic pain; type: in vivo, rat; details: 50 mg/kg oral, four treatments at 12-hour intervals starting after CFA injection; FIG. 13
Procedure: This example illustrates that treatment of animals with DCUKA following insult, but prior to development of neuropathic pain, can prevent the development of the pain. Rats were treated with cisplatin or CFA, and mechanical pain threshold was measured, as described under Example 5.
Prevention of CFA-Induced Neuropathic Pain by DCUKA. After baseline measurement of the mechanical pain threshold, rats were treated with CFA as described earlier. Following the CFA injection, rats were given vehicle (canola oil/gelatin) (n=7) or 50 mg/kg DCUKA (n=7) orally by intragastric gavage. Rats then received three more treatments with vehicle or DCUKA at 12-hour intervals. At 60 hours after CFA treatment, the mechanical pain threshold was again tested.

[5] = tested on: rats treated with streptozotocin; experiment: Combination with aspirin, STZ-induced neuropathic pain (von Frey); type: in vivo, rat; details: FIG. 16
Procedure: After administration of streptozotocin (STZ) as described in Example 5, rats were tested for allodynia using a von Frey apparatus. Sixty minutes prior to testing, rats were divided into four groups. Group 1 received vehicle; group 2 received DCUKA; group 3 received aspirin; and group 4 received a combination of DCUKA and aspirin.

MOR (μ opiate receptor) = MOR (μ opiate receptor) (Homo sapiens, UniProt P35372); experiment: PDSP radioligand binding, [^3H]DAMGO
Chain of MOR (μ opiate receptor) (P35372 whole entry): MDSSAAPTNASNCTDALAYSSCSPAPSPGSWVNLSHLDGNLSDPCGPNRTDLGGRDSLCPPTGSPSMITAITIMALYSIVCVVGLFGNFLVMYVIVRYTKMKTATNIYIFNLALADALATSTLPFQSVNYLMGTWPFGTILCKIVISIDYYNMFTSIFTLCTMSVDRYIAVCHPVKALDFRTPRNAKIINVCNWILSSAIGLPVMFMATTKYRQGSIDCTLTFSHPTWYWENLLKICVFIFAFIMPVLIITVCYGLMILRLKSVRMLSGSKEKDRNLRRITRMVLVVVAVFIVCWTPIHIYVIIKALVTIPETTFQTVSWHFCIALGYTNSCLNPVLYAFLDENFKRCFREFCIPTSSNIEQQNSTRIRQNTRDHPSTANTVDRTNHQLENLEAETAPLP

[6] = tested on: rats treated with Complete Freund's Adjuvant; experiment: Naltrindole reversal of the effect of DCUKA on CFA-induced neuropathic pain; type: in vivo, rat; details: DCUKA 50 mg/kg oral plus intraplantar saline, 2 days after CFA; FIG. 12
Procedure: Rats were tested for baseline mechanical pain threshold (von Frey test) and given an intraplantar injection of Complete Freunds Adjuvant (CFA) in the left hind paw.

[7] = tested on: rats treated with Complete Freund's Adjuvant; experiment: Combination with morphine, CFA-induced pain, mechanical pain threshold; type: in vivo, rat; details: FIG. 15 Panel A
V1A (Vasopressin) = V1A (Vasopressin) (Homo sapiens, UniProt P37288); experiment: PDSP radioligand binding
D2 (Dopamine Rs) = D2 (Dopamine Rs) (Homo sapiens, UniProt P14416); experiment: PDSP radioligand binding
Chain of D2 (Dopamine Rs) (P14416 whole entry): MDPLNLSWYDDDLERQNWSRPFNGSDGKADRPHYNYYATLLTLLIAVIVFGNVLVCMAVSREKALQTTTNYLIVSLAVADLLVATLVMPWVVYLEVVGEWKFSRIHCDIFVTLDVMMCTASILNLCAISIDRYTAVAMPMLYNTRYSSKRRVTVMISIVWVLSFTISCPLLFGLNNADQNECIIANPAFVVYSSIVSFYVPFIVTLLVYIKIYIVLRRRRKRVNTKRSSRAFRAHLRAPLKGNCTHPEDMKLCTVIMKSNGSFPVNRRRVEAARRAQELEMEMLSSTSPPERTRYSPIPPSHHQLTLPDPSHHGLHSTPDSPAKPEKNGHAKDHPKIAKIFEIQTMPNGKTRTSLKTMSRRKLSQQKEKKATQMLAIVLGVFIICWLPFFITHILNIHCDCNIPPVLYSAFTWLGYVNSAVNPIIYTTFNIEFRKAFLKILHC

[8] = tested on: rats treated with streptozotocin; experiment: Reversal of streptozotocin-induced (diabetic) neuropathic pain (von Frey); type: in vivo, rat
[9] = tested on: rats treated with Complete Freund's Adjuvant; experiment: Reversal of CFA-induced neuropathic pain (von Frey mechanical pain threshold); type: in vivo, rat; details: for Mechanical pain threshold, ratio to baseline: 1 hour
[10] = target: M2 (Muscarinic Cholinergic Rs) (Homo sapiens, UniProt P08172); experiment: PDSP radioligand binding
Chain of M2 (Muscarinic Cholinergic Rs) (P08172 whole entry): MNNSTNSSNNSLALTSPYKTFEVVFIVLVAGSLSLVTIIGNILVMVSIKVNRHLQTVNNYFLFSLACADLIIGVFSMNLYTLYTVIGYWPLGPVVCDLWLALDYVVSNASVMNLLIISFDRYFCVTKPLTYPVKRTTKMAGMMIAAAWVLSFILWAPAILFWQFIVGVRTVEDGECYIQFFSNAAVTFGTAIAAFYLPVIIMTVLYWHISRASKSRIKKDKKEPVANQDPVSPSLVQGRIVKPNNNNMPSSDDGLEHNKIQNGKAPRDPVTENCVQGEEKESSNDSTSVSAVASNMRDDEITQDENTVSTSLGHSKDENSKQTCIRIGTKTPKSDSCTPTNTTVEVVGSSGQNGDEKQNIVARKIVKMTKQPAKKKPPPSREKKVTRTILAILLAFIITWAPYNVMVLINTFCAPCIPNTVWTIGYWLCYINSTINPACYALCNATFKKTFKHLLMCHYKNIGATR

Chain of D1 (Dopamine Rs) (P21728 whole entry): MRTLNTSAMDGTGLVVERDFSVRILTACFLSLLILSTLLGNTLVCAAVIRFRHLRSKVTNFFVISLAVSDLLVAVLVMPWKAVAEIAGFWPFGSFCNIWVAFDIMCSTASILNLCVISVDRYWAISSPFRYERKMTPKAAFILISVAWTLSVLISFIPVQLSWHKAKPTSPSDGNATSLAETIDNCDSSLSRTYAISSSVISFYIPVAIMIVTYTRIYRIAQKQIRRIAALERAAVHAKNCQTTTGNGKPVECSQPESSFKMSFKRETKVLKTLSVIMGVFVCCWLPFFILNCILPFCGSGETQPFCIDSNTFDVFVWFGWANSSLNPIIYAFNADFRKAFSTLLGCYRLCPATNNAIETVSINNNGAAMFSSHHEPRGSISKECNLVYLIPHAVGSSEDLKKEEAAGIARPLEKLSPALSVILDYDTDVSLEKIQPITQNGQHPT
Chain of β2 (Adrenergic Rs (beta adrenergic)) (P07550 whole entry): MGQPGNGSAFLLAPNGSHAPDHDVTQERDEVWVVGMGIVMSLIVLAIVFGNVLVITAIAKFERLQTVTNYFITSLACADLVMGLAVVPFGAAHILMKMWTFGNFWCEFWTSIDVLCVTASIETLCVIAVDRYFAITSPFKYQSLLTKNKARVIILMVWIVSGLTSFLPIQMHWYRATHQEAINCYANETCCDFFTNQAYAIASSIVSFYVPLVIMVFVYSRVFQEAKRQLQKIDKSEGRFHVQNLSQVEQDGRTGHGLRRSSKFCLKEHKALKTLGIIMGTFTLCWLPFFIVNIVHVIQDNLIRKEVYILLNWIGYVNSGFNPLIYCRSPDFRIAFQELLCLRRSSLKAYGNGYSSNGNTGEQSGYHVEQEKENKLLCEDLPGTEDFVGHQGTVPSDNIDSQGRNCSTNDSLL

`O=C(O)c1cc(NC(=O)N(c2ccccc2)c2ccccc2)c2c(Cl)cc(Cl)cc2n1` [DCUKA, 5,7-dichloro-4-(3,3-diphenylureido)quinoline-2-carboxylic acid] gave a Ki (D1 (Dopamine Rs)) of over 10 µM, a Ki [1] of over 10 µM and a Ki (CB1 Receptor) of 11 ± 2.7 µM. For the same molecule, the Ki [2] was over 10 µM, the Ki [3] was over 10 µM and the “Alcohol self-administration compared to baseline” value (ethanol dependent rats) was “no significant effect on repressing alcohol self-administration”. The “Mechanical pain threshold at 60 hours after CFA, ratio to baseline” value [4] was “the threshold was not reduced”, the “Effect on allodynia, combination of DCUKA and aspirin” value ([5]; DCUKA 12.5 mg/kg plus aspirin 25 mg/kg) was “completely reverse the hyper-responsiveness” and the “Effect on allodynia, alone” value ([5]; DCUKA 12.5 mg/kg, 60 min before test) was “do not have any significant effect on allodynia”. The Ki (MOR (μ opiate receptor)) was over 10 µM, the Mechanical pain threshold [6] was “increased the pain threshold back to baseline level” and the “Analgesia, each agent alone at the dose used for the combination” value [7] was “ineffective in producing analgesia”. The “Reversal of CFA-induced pain, combination of DCUKA and morphine” value ([7]; doses ineffective alone, injected 30 min before test, 48 h after CFA) was “complete reversal of inflammation-induced chronic pain”, the Ki (V1A (Vasopressin)) was over 10 µM and the Ki (D2 (Dopamine Rs)) was over 10 µM. For the same molecule, the “Mechanical pain threshold, ratio to baseline” value ([8]; 14 days after STZ, 40 or 50 mg/kg oral, 90 minutes, three experiments combined, FIG. 10) was “reversed to the baseline level”, the “Difference between 50 mg/kg DCUKA and 0 mg/kg DCUKA in ratio of mechanical pain threshold to pre-STZ threshold” value ([8]; Fisher's LSD, p<0.0001, FIG. 10) was 0.60 and the “Doses that reversed the effect of STZ on pain threshold back to baseline” value ([8]; oral, 90 minutes, meta-analysis of four experiments, FIG. 11) was at least 30 mg/kg. The “Mechanical pain threshold, ratio to baseline” value ([9]; 48-60 h after CFA, 50 mg/kg oral, three experiments combined, FIG. 7) was “a level not significantly different from the baseline level”, the “Mechanical pain threshold, ratio to baseline” value ([9]; 48 h after CFA, 50 mg/kg, DCUKA n=17, BCUKA n=6, FIG. 8) was “reversed the mechanical pain threshold to a level not significantly different from baseline” and the “Doses that significantly reversed the CFA-induced decrease of mechanical pain threshold” value ([9]; oral, 60 min, meta-analysis of five experiments, FIG. 9) was at least 30 mg/kg. For the same molecule, the Ki [10] was over 10 µM.
